Laboratory results: patent publication US8663620B2, “Murgantiol as a stink bug synergistic attractant for use outdoors” (Sterling International Inc., priority 2011, dated 2014)
“Also recorded” adds a separate entry of the source. Like-named read-outs stand apart in the source and are kept apart here.

Legend:
[1] = test system: Euschistus spp.; experiment: Outdoor trapping with Rescue! Stink Bug Traps, synergistic attraction; format: in vivo; conditions: outdoors
[2] = test system: brown marmorated stink bug (BMSB); experiment: Field trapping Experiment 2 (Example 2): attractant formulations with and without racemic murgantiol in Rescue! Stink Bug Traps; format: in vivo, Halyomorpha halys; conditions: outdoors, September; FIG. 3
Protocol: Two field trapping experiments were carried out from early to late September in home gardens/yards in Pittsburgh, Pa. In order to test the potential activity of the Harlequin bug pheromone, murgantiol, as a BMSB outdoor attractant or outdoor synergistic attractant to other known stink bug attractants, commercially available Rescue!® Stink Bug Traps (described in U.S. Pat. No. D645,534; U.S. Pat. No. D645,535; and U.S. patent application Ser. No. 13/331,394, filed Dec. 20, 2011) were used. Traps baited with different tested compounds or combinations were set up in lines, 1-1.5 m above the ground on either tree branches or fences ca. 3-5 m apart between each trap within a set, and at least 50 m between sets. For each trapping experiment, five sets of traps (i.e., five physical replicates of each treatment) were deployed with their initial trap positions within each set being randomized. To minimize positional effects and obtain more replications, stink bug collections and trap re-randomizations were carried out when ≧20 stink bugs were caught in the best traps. Each replicate lasted one to several days depending on stink bug activity. Captured stink bugs were removed from the traps and kept in plastic (polyethylene) zip-bags before returning to the laboratory for recording of the species, gender, and development status (nymphs, adult males/females), and catch. […]

[3] = test system: BMSB adults; conditions: both sexes of adults, overwintering and transition periods; cited from earlier work
[4] = test system: brown marmorated stink bug (BMSB); experiment: Field trapping Experiment 1 (Example 1): doses of racemic murgantiol vs standard attractants in Rescue! Stink Bug Traps; format: in vivo, Halyomorpha halys; conditions: for attraction of BMSB adults (mean numbers captured in baited traps): Pittsburgh, Pa., 14 days in early September, vs blank control, Duncan's test α=0.05; for attraction of BMSB adults (mean numbers captured in baited traps) / dose-response of trap catches: FIG. 2; for dose-response of trap catches: racemic murgantiol 10, 20, 40, 80 mg
Protocol: Two field trapping experiments were carried out from early to late September in home gardens/yards in Pittsburgh, Pa. In order to test the potential activity of the Harlequin bug pheromone, murgantiol, as a BMSB outdoor attractant or outdoor synergistic attractant to other known stink bug attractants, commercially available Rescue!® Stink Bug Traps (described in U.S. Pat. No. D645,534; U.S. Pat. No. D645,535; and U.S. patent application Ser. No. 13/331,394, filed Dec. 20, 2011) were used. Traps baited with different tested compounds or combinations were set up in lines, 1-1.5 m above the ground on either tree branches or fences ca. 3-5 m apart between each trap within a set, and at least 50 m between sets. For each trapping experiment, five sets of traps (i.e., five physical replicates of each treatment) were deployed with their initial trap positions within each set being randomized. To minimize positional effects and obtain more replications, stink bug collections and trap re-randomizations were carried out when ≧20 stink bugs were caught in the best traps. Each replicate lasted one to several days depending on stink bug activity. Captured stink bugs were removed from the traps and kept in plastic (polyethylene) zip-bags before returning to the laboratory for recording of the species, gender, and development status (nymphs, adult males/females), and catch. Murgantiol and the known stink bug attractants were released from dispensers [for example, 4 mil polyethylene bags (2.3×5.5 cm) or dispensers described in U.S. patent application Ser. No. 13/206,244, filed Aug. 9, 2011, incorporated herein by reference in its entirety]. Experiment 1 (Example 1) tested different doses of racemic murgantiol (MGT) in comparison with the known standard stink bug attractants [M246DT/M24DD], and the blank control. Trap catch data were converted to proportion (P) of total captured bugs within each replicate. The data were then transformed by arcsin (P)^1/2 to meet the assumptions of normality and homogeneity of variances for ANOVA (analysis of variance). Means were compared by ANOVA followed by the Duncan's multiple range test at α=0.05.

[5] = test system: Harlequin bugs; conditions: insect-produced and synthetic murgantiol; laboratory; cited from earlier work
[6] = test system: Euschistus spp.; conditions: seven Euschistus spp.; Aldrich et al. 1991; cited from earlier work
[7] = test system: A. hilare; conditions: Aldrich et al. 2007; Khrimian 2005; cited from earlier work
[8] = test system: BMSB; conditions: cited from earlier work

SMILES: CC(CCC1OC1(C)C)C1C=CC(C)(O)CC1 (racemic) [murgantiol, 4-[3-(3,3-dimethyloxiran-2-yl)-1-methylpropyl]-1-methylcyclohex-2-en-1-ol]
- synergistic attraction together with known stink bug attractants such as M246DT and M24DD [1]: synergistically attract
- effect of adding murgantiol to M246DT/M24DD attractants on BMSB trap catches (synergism) [2]: synergistically attract; also recorded: significant increases in attraction; also recorded: strong synergistic effects
- indoor attraction of BMSB [3]: indoor attractant
- attraction of BMSB adults (mean numbers captured in baited traps) ([4]; outdoors): active as an outdoor attractant; also recorded: comparable, if not more effective in attracting insects; also recorded: outdoor attractant for BMSBs in any dose amount
- attraction of BMSB adults (mean numbers captured in baited traps) ([4]; outdoors, listed as MGT-A): strong attraction to BMSBs at levels similar or even higher than the known standard stink bug attractants
- attraction of BMSB adults (mean numbers captured in baited traps) ([4]; outdoors, listed as MGT-B): strong attraction to BMSBs at levels similar or even higher than the known standard stink bug attractants
- attraction of BMSB adults (mean numbers captured in baited traps) ([4]; outdoors, listed as MGT-C): strong attraction to BMSBs at levels similar or even higher than the known standard stink bug attractants
- attraction of BMSB adults (mean numbers captured in baited traps) ([4]; outdoors, listed as MGT-D): strong attraction to BMSBs at levels similar or even higher than the known standard stink bug attractants
- sexes and stages attracted and captured ([4]; outdoors, September, nymphs only 5% of total catches): Both sexes of adults (ca. 1:1) and nymphs were attracted and captured
- dose-response of trap catches [4]: no significant dose-response effects
- dose-response of trap catches ([4]; listed as MGT-A): as effective as the highest dose
- attraction of Harlequin bugs [5]: attracted sexually mature Harlequin bugs of both sexes

SMILES: CCCCC/C=C\C=C\C(=O)OC [M24DD, methyl (2E,4Z)-decadienoate]
- field attraction of Euschistus spp. [6]: aggregation pheromone compound or field attractant

SMILES: CCC\C=C/C=C/C=C/C(=O)OC [M246DT, methyl (2E,4E,6Z)-decatrienoate]
- field attraction of A. hilare [7]: field attractant
- field attraction of BMSB ([8]; adults (males and females) and nymphs, Aldrich et al. 2007, Khrimian 2005): field attractant for both adults (males and females) and nymphs
- attraction of BMSB ([8]; late spring and early summer, dispersal (overwintered) adults): only weakly active
- attraction of BMSB ([8]; mid-summer and early fall): strongly attractive to both nymphs and adults
